PMC4811770 (eLife, 2016)
Structures can show the parent of a compound that is named as a salt. Where two headings read alike, the source gives them in different places. Values belong to the molecule of their own block, whether it stands above or below them.

Key:
[1] = test system: wild-type sperm; assay: Intracellular pH measurement with BCECF in wild-type sperm; type: cell-based, mouse
[2] = test system: sperm flagellum (mlCNBD-FRET sperm); assay: Dual-view FRET imaging of cAMP dynamics in the flagellum of mlCNBD-FRET sperm; type: cell-based, mouse
[3] = test system: mlCNBD-FRET sperm
[4] = test system: sperm; conditions: 25 mM bicarbonate, after rapid rise at 1 min
[5] = test system: T1, tmAC; assay: Maximal cAMP-dependent FRET ratio of mlCNBD-FRET in HEK293 cells after stimulation of endogenous adenylate cyclases with increasing NKH477 concentrations.; type: cell-based; conditions: SD, n = 4
T1 construct: endogenous in HEK293 cells, isoform not specified

[6] = test system: HEK293 cells expressing mlCNBD-FRET; assay: cAMP/cGMP dynamics (FRET ratio) in HEK293 cells expressing mlCNBD-FRET after drug stimulation; type: cell-based; conditions: 20 µM isoproterenol, n = 9
Description: Cells were cultured in Ibidi μ-slides (Ibidi, Planegg, Germany) attached to a home-built gravity-flow perfusion system. Measurements were performed using a CellR live-cell imaging system (Olympus) with 20x objective. Cells were perfused with extracellular solution (ES: 120 mM NaCl, 5 mM KCl, 2 mM MgCl2, 2 mM CaCl2, 10 mM HEPES, 10 mM glucose, pH 7.4) to determine the basal FRET ratio and then the stimulus was added (NKH477 and IBMX, Tocris, Wiesbaden, Germany; Isoproterenol and SNP, Sigma-Aldrich). FRET was recorded by exciting cerulean at 436 nm and measuring the emission of cerulean and citrine at 470 nm and 535 nm, respectively. The change in FRET (emissioncerulean/emissioncitrine) was calculated, corrected for bleed-through, normalized to the baseline, and plotted versus time.
For population measurement using a spectrofluorometer (Quantamaster 40, PTI), HEK293 cells were trypsinized at 37°C for 5 min and washed twice with ES. […] Fluorescence spectra at steady-state were recorded with excitation at 430 nm and 0.5 s integration time. For time-resolved measurements, cells were excited at 430 nm and emission was recorded at 470 nm (cerulean) and 530 nm (citrine) at an acquisition frequency of 1 Hz. The change in FRET (emissioncerulean/emissioncitrine) was calculated, corrected for bleed-through, normalized to the baseline, and plotted versus time.

[7] = test system: HEK293 cells expressing SSTR3-mlCNBD-FRET; assay: FRET change in HEK293 cells expressing SSTR3-mlCNBD-FRET; type: cell-based; conditions: 20 μM isoproterenol, n = 9
Description: Cells were cultured in Ibidi μ-slides (Ibidi, Planegg, Germany) attached to a home-built gravity-flow perfusion system. Measurements were performed using a CellR live-cell imaging system (Olympus) with 20x objective. […] Isoproterenol and SNP, Sigma-Aldrich). FRET was recorded by exciting cerulean at 436 nm and measuring the emission of cerulean and citrine at 470 nm and 535 nm, respectively. The change in FRET (emissioncerulean/emissioncitrine) was calculated, corrected for bleed-through, normalized to the baseline, and plotted versus time. The full-length mouse SSTR3 cloned into pEGFP-N1 was kindly provided by Greg Pazour (UMass Medical School). For expression of SSTR3-tagged mlCNBD-FRET, the SSTR3 coding sequence was amplified by a recombinant PCR reaction to delete the internal NheI site. The fragment was subcloned into […].

[8] = target: T2, mlCNBD-FRET (Mesorhizobium japonicum, UniProt Q98GN8); assay: Spectrofluorometric titration of 1 uM purified sensor with cGMP, cerulean/citrine FRET ratio at 430 nm excitation, single-site fit.; type: binding; conditions: SD, n = 6
T2 construct: gene mll3241; CNBD (Phe223 to Arg349) with citrine fused to N-terminus and cerulean to C-terminus, C-terminal His10 tag
T2 sequence (Q98GN8 223-349): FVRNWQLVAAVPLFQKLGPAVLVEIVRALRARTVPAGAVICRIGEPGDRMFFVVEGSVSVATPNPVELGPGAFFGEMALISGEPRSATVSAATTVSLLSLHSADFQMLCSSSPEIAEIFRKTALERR

[9] = stopped-flow, 10 mM NH4Cl or 25 mM bicarbonate
[10] = perfusion with 25 mM bicarbonate, n = 7

Compound: Cl.N [NH4Cl]
- change in pHi [1, 9]: pronounced alkalization

Compound: O=C([O-])CN(CC(=O)[O-])c1ccccc1OCCOc1ccccc1N(CC(=O)[O-])CC(=O)[O-].[K+].[K+].[K+].[K+] [BAPTA, 1,2-Bis(2-aminophenoxy)ethane-N,N,N′,N′-tetraacetic acid tetrapotassium salt]
- change in pHi ([1]; spectrofluorometer, 3 mM BAPTA reducing [Ca2+]o to 443 nM): did not change pHi

Compound: O=C([O-])O.[Na+] [bicarbonate, NaHCO3]
- change in pHi [1, 9]: did not dramatically change pHi
- cAMP increase (FRET) in midpiece [2, 10]: 26 ± 3%
- cAMP increase (FRET) in principal piece [2, 10]: 22 ± 10%
- change in cAMP (FRET) ([3]; 25 mM bicarbonate, 10 μM [Ca2+]o): did not change the cAMP concentration
- time to steady-state of free cAMP increase ([3]; 25 mM bicarbonate, 2 mM Ca2+ buffer): about 5 min
- change in cAMP (FRET) ([3]; bicarbonate at 2.2 nM [Ca2+]o (10 μM Ca2+/1 mM BAPTA)): did not further enhance cAMP levels
- time for total cAMP levels to decline to basal levels [4]: ≤ 10 min

Compound: C=CC1(C)CC(=O)C2(O)C(C)(O1)C(OC(C)=O)C(OC(=O)CCN(C)C)C1C(C)(C)CCC(O)C12C (centres unmarked) [NKH477]
- cAMP change (FRET) in midpiece or principal piece ([2]; perfusion with 40 μM NKH477, n = 3): 0 ± 3%

- EC50 [5]: 3.6 µM
Compound: C=CC1(C)CC(=O)C2(O)C(C)(O1)C(OC(C)=O)C(OC(=O)CCN(C)C)C1C(C)(C)CCC(O)C12C (centres unmarked) [NKH477, colforsin daropate hydrochloride (water-soluble forskolin derivative)]

Compound: CC(C)NCC(O)c1ccc(O)c(O)c1 (centres unmarked) [isoproterenol]
- change of ΔF [6]: 47 ± 3%
- increase of FRET ratio [7]: approximately 25%

Compound: Nc1nc2c(ncn2[C@@H]2O[C@@H]3COP(=O)(O)O[C@H]3[C@H]2O)c(=O)[nH]1 [cGMP, cyclic guanosine 3',5'-monophosphate]
- Kd [8]: 0.504 µM
